Measured values from ChEMBL document CHEMBL4680314, “Discovery of potent glycogen synthase kinase 3/cholinesterase inhibitors with neuroprotection as potential therapeutic agent for Alzheimer's disease” (Bioorg Med Chem, 2021).

Experiments:
[1] = target: Cholinesterase (Homo sapiens, UniProt P06276); assay: Inhibition of human BChE using butyrylthiocholineiodide as substrate incubated for 10 mins by Ellman's method
[2] = target: Glycogen synthase kinase-3 beta (Homo sapiens, UniProt P49841); assay: biochemical
Glycogen synthase kinase-3 beta, sequence (P49841 whole entry): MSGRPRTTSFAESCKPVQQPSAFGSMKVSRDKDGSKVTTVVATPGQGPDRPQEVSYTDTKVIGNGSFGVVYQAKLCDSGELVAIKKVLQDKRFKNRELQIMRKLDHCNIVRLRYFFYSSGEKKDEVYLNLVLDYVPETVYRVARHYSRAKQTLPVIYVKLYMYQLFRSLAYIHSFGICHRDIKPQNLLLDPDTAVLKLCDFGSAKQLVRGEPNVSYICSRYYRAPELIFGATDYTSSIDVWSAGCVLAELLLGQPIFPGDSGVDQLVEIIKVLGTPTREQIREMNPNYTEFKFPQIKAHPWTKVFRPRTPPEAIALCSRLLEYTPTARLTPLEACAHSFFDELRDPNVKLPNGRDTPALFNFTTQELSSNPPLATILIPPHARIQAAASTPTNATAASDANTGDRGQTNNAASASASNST
Description: Inhibition of recombinant human N-terminal His6-tagged GSK3beta H350L mutant expressed in baculovirus infected Sf21 cells using prephosphorylated polypeptide as substrate incubated for 1 min followed by substrate addition and measured after 30 mins by Kinase-Glo luminescence assay

[3] = target: Acetylcholinesterase (Homo sapiens, UniProt P22303); assay: Inhibition of human recombinant AChE expressed in HEK293 cells using acetylthiocholine iodide as substrate incubated for 10 mins by Ellman's method; type: cell-based
Acetylcholinesterase, sequence (P22303 whole entry): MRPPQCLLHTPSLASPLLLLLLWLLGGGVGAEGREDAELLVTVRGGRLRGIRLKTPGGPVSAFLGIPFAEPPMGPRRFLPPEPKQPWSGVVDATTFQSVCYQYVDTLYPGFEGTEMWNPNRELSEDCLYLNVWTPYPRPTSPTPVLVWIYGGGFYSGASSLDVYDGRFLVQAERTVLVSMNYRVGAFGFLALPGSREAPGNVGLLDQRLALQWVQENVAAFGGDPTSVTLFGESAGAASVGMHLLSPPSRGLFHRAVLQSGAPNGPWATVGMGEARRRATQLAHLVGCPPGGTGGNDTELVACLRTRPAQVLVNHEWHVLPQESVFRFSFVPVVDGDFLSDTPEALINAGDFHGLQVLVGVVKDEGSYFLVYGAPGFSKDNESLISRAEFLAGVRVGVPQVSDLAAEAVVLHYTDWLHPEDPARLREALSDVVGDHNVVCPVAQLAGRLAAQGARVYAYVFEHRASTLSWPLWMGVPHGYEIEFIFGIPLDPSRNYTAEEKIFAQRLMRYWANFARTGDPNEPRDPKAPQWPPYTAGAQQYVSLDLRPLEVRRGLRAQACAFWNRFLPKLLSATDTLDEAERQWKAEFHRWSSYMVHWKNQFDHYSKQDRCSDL

[4] = in vitro; conditions: PAMPA
Description: Effective permeability of compound in PBS/EtOH buffer (7:3) at 25 ug/ml incubated for 18 hrs by PAMPA-BBB assay

Cholinesterase, sequence (P06276 whole entry): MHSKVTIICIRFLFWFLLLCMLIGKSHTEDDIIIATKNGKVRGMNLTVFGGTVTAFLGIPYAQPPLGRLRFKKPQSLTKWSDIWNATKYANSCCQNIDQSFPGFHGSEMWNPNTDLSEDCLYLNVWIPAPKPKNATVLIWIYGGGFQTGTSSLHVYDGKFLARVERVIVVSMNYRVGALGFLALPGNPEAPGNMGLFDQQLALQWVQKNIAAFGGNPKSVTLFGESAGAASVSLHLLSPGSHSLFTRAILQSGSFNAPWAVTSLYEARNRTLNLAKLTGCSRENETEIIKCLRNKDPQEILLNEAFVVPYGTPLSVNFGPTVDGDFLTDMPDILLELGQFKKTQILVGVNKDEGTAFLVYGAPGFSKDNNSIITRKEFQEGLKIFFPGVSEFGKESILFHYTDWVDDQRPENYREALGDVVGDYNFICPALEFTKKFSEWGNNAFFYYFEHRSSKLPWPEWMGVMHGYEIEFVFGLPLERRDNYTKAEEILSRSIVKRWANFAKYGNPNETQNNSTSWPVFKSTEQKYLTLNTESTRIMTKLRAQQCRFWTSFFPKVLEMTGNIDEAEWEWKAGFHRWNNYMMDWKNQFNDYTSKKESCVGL

SMILES | IC50 [1] [µM] | IC50 [2] [µM] | IC50 [3] [µM] | Papp at 18 h, 25 ug/ml [4] [×10⁻⁶ cm/s]
NC(=O)c1sc(-c2ccnc(NC(=O)C3CC3)c2)nc1OCCC1CCN(Cc2ccc(F)c(F)c2)CC1 | 7.2 | 0.01 | 42.8 | –
CCn1cc(C(=O)O)c(=O)c2ccc(-n3cccc3)cc21 | – | – | – | 2.5
NC(=O)c1sc(-c2ccnc(NC(=O)C3CC3)c2)nc1OCCC1CCN(Cc2ccc(F)cc2)CC1 | 17.6 | 0.038 | 4.5 | 8.2
NC(=O)c1sc(-c2ccnc(NC(=O)C3CC3)c2)nc1OCCC1CCN(Cc2ccccc2F)CC1 | 41 | 0.261 | 7.8 | –
CNC(=O)c1sc(-c2ccnc(NC(=O)C3CC3)c2)nc1OCC1CCN(Cc2cccc([N+](=O)[O-])c2)CC1 | 9 | 0.005 | 6 | –
CNC(=O)c1sc(-c2ccnc(NC(=O)C3CC3)c2)nc1OC1CCN(Cc2ccccc2)CC1 | 31 | 0.007 | 73 | –
NC(=O)c1sc(-c2ccnc(NC(=O)C3CC3)c2)nc1OCCC1CCN(Cc2ccccc2)CC1 | 15.3 | 0.019 | 0.73 | 8.8
CNC(=O)c1sc(-c2ccnc(NC(=O)C3CC3)c2)nc1OCC1CCN(Cc2ccccc2F)CC1 | 11 | 0.014 | 9 | –
NC(=O)c1sc(-c2ccnc(NC(=O)C3CC3)c2)nc1OCCCC1CCN(Cc2ccccc2F)CC1 | 4.2 | 0.015 | 1.32 | 7.1
CNC(=O)c1sc(-c2ccnc(NC(=O)C3CC3)c2)nc1OCC1CCN(Cc2cccc(Br)c2)CC1 | 15 | 0.049 | 394 | –
CNC(=O)c1sc(-c2ccnc(NC(=O)C3CC3)c2)nc1OCC1CCN(Cc2ccc(Cl)cc2)CC1 | 297 | 0.045 | 82 | –
CNC(=O)c1sc(-c2ccnc(NC(=O)C3CC3)c2)nc1OCC1CCN(Cc2ccccc2)CC1 | 14 | 0.016 | 8 | –
CNC(=O)c1sc(-c2ccnc(NC(=O)C3CC3)c2)nc1OCC1CCN(Cc2ccc(Cl)c(Cl)c2)CC1 | 65 | 0.041 | 97 | –
